The record followed here is PubChem BioAssay AID330 (DTP/NCI, 2004).

Where “and” joins values, the source holds several entries; their conditions need not be identical. Identical values can stand only once. Toxic doses and inconclusive results are not listed.

This experiment has as its system P388 leukemia ip, CD2F1 mice, survival T/C. In words: NCI In Vivo Anticancer Drug Screen. Data for tumor model P388 Leukemia (intraperitoneal) in CD2F1 (CDF1) mice. Conditions: endpoint: median survival time, higher = longer survival. In short, it runs like this:
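Mice carrying the transplanted tumor received test compound or vehicle. Survival was recorded in each group, and the value is the treated-group measurement divided by that of the vehicle-treated control group.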

Setting [1] is: dose: 100.0 mg/kg/injection, schedule: Q04DX003 (ip), vehicle: saline with Tween-80.
Setting [2] is: dose: 200.0 mg/kg/injection, schedule: Q04DX003 (ip), vehicle: saline with Tween-80.
Setting [3] is: dose: 60.0 mg/kg/injection, schedule: Q01DX005 (ip), vehicle: saline.
Setting [4] is: dose: 120.0 mg/kg/injection, schedule: Q01DX005 (ip), vehicle: saline.
Setting [5] is: dose: 240.0 mg/kg/injection, schedule: Q01DX005 (ip), vehicle: saline.
Setting [6] is: dose: 100.0 mg/kg/injection, schedule: Q04DX002 (ip), vehicle: Klucel (hydroxypropylcellulose) (HPC).
[7] abbreviates: dose: 60.0 mg/kg/injection, schedule: Q01DX005 (ip), vehicle: Klucel (hydroxypropylcellulose) (HPC).
[8] abbreviates: dose: 120.0 mg/kg/injection, schedule: Q01DX005 (ip), vehicle: Klucel (hydroxypropylcellulose) (HPC).
[9] abbreviates: dose: 240.0 mg/kg/injection, schedule: Q01DX005 (ip), vehicle: Klucel (hydroxypropylcellulose) (HPC).
[10] abbreviates: dose: 50.0 mg/kg/injection, schedule: Q01DX005 (ip), vehicle: saline with Tween-80.
The mark [11] stands for this setting: dose: 100.0 mg/kg/injection, schedule: Q01DX005 (ip), vehicle: saline with Tween-80.
The mark [12] stands for this setting: dose: 25.0 mg/kg/injection, schedule: Q01DX009 (ip), vehicle: saline.
Where [13] appears, read: dose: 50.0 mg/kg/injection, schedule: Q01DX009 (ip), vehicle: saline.
The mark [14] stands for this setting: dose: 100.0 mg/kg/injection, schedule: Q01DX009 (ip), vehicle: saline.
Setting [15] is: dose: 100.0 mg/kg/injection, schedule: Q01DX001 (ip), vehicle: Klucel (hydroxypropylcellulose) (HPC).
Where [16] appears, read: dose: 60.0 mg/kg/injection, schedule: Q01DX005 (ip), vehicle: saline with Tween-80.
Where [17] appears, read: dose: 120.0 mg/kg/injection, schedule: Q01DX005 (ip), vehicle: saline with Tween-80.
The mark [18] stands for this setting: dose: 240.0 mg/kg/injection, schedule: Q01DX005 (ip), vehicle: saline with Tween-80.

For `FC(F)(F)c1nc(Cc2ccccc2)c(C(F)(F)F)o1`, the T/C by setting is: under setting [1], 93 % of control; under setting [2], 93 % of control; (dose: 400.0 mg/kg/injection, schedule: Q04DX003 (ip), vehicle: saline with Tween-80) 95 % of control.

As to `CC(=O)N1c2ccccc2C23CCN4CC5=CCOC(O)C(C5CC42)C13` (stereo unspecified), the T/C is, setting by setting: (dose: 20.0 mg/kg/injection, schedule: Q01DX009 (ip), vehicle: Klucel (hydroxypropylcellulose) (HPC)) 107 % of control; (dose: 40.0 mg/kg/injection, schedule: Q01DX009 (ip), vehicle: Klucel (hydroxypropylcellulose) (HPC)) 108 % of control; (dose: 80.0 mg/kg/injection, schedule: Q01DX009 (ip), vehicle: Klucel (hydroxypropylcellulose) (HPC)) 110 % of control; (dose: 160.0 mg/kg/injection, schedule: Q01DX009 (ip), vehicle: Klucel (hydroxypropylcellulose) (HPC)) 118 % of control.

Turning to `Cn1ncc2c(NCc3ccccc3)ncnc21`, the T/C is 95 % of control (dose: 6.25 mg/kg/injection, schedule: Q01DX009 (ip), vehicle: saline sonified); 95 % of control (dose: 12.5 mg/kg/injection, schedule: Q01DX009 (ip), vehicle: saline sonified); 109 % of control (dose: 25.0 mg/kg/injection, schedule: Q01DX009 (ip), vehicle: saline sonified); 109 % of control (dose: 50.0 mg/kg/injection, schedule: Q04DX003 (ip), vehicle: saline with Tween-80); 104 % of control under setting [1]; 95 % of control under setting [2].

In the case of `CN(C)C(=S)OCC1OC(OC2(CO)OC(COC(=S)N(C)C)C(O)C2O)C(O)C(O)C1O` (stereo unspecified), the T/C is 100 % of control under setting [3], 103 % of control under setting [4] and 103 % of control under setting [5].

`Cc1cc(-c2ccc(Oc3ccc(Br)cc3)cc2)n[nH]c1=O`: the T/C is 99 % of control (dose: 50.0 mg/kg/injection, schedule: Q01DX005 (ip), vehicle: Klucel (hydroxypropylcellulose) (HPC)); 104 % of control (dose: 100.0 mg/kg/injection, schedule: Q01DX005 (ip), vehicle: Klucel (hydroxypropylcellulose) (HPC)); 96 % of control (dose: 200.0 mg/kg/injection, schedule: Q01DX005 (ip), vehicle: Klucel (hydroxypropylcellulose) (HPC)).

For `NC(=O)C(CO)NC(=O)c1cccnc1` (stereo unspecified), the T/C is, setting by setting: under setting [3], 100 % of control; under setting [4], 100 % of control; under setting [5], 99 % of control.

In the case of `C=C1CC2(CCCCC2c2ccccc2)OC1=O` (stereo unspecified), the T/C is, setting by setting: under setting [6], 97 % of control; (dose: 200.0 mg/kg/injection, schedule: Q04DX002 (ip), vehicle: Klucel (hydroxypropylcellulose) (HPC)) 103 % of control; (dose: 400.0 mg/kg/injection, schedule: Q04DX002 (ip), vehicle: Klucel (hydroxypropylcellulose) (HPC)) 103 % of control.

For the molecule `CCCCCCCc1cc(=O)[nH]c(=S)[nH]1`, the T/C runs as follows: under setting [7], 96 % of control; under setting [8], 95 % of control; under setting [9], 89 % of control.

With `CC(C)C(NN)C(=O)O` (stereo unspecified), the T/C is 98 % of control under setting [10] and 116 % of control under setting [11].

Take `N=C(N)COCc1ccccc1`: the T/C runs as follows: under setting [12], 116 % of control; under setting [13], 120 % of control; under setting [14], 111 % of control.

With `COc1cc(C/C(=C\c2ccc3c(c2)OCO3)[N+](=O)[O-])ccc1OCc1ccccc1`, the T/C under setting [15] was 98 % of control; the T/C (dose: 200.0 mg/kg/injection, schedule: Q01DX001 (ip), vehicle: Klucel (hydroxypropylcellulose) (HPC)) is 96 % of control; the T/C (dose: 400.0 mg/kg/injection, schedule: Q01DX001 (ip), vehicle: Klucel (hydroxypropylcellulose) (HPC)) is 96 % of control.

Turning to `Nc1nnc2nc(C(C(=O)c3ccccc3)c3nc4nnc(N)n4[nH]c3=O)c(=O)[nH]n12`, the T/C was 102 % of control (dose: 50.0 mg/kg/injection, schedule: Q01DX005 (ip), vehicle: saline); 96 % of control (dose: 100.0 mg/kg/injection, schedule: Q01DX005 (ip), vehicle: saline); 97 % of control (dose: 200.0 mg/kg/injection, schedule: Q01DX005 (ip), vehicle: saline).

With `Brc1cccc[n+]1Cc1cc2ccccc2c2ccccc12`, the T/C is 105 % of control (dose: 25.0 mg/kg/injection, schedule: Q04DX002 (ip), vehicle: Klucel (hydroxypropylcellulose) (HPC)); 106 % of control (dose: 50.0 mg/kg/injection, schedule: Q04DX002 (ip), vehicle: Klucel (hydroxypropylcellulose) (HPC)); 112 % of control under setting [6].

Turning to `O=C(O)CC1(C(=O)O)CC2C=CC1C2` (stereo unspecified), the T/C under setting [16] is 104 % of control, the T/C under setting [17] was 91 % of control and the T/C under setting [18] is 91 % of control.

Consider `N#CC(c1ccccc1)(N1CCOCC1)N1CCOCC1`, for which the T/C (dose: 6.25 mg/kg/injection, schedule: Q04DX003 (ip), vehicle: saline) is 101 % of control and 97 % of control; the T/C (dose: 12.5 mg/kg/injection, schedule: Q04DX003 (ip), vehicle: saline) is 100 % of control and 101 % of control; the T/C (dose: 25.0 mg/kg/injection, schedule: Q04DX003 (ip), vehicle: saline) was 100 % of control and 101 % of control (2×); the T/C under setting [1] was 100 % of control.

In the case of `Nc1nc2c(C(=O)NCc3cccs3)nnn2c2cccc(Cl)c12`, the T/C is 96 % of control under setting [16], 92 % of control under setting [17] and 95 % of control under setting [18].

With `CSCCC(N)C(=O)OCN1C(=O)C2C3C=CC(C2C1=O)C1C2C(=O)N(COC(=O)C(N)CCSC)C(=O)C2C31` (stereo unspecified), the T/C is, setting by setting: (dose: 12.5 mg/kg/injection, schedule: Q01DX009 (ip), vehicle: saline) 117 % of control; under setting [12], 122 % of control and 93 % of control; under setting [13], 109 % of control; under setting [14], 171 % of control and 200 % of control.

For `O=S(=O)(NCCSSCCNS(=O)(=O)c1cccc2cccnc12)c1cccc2cccnc12`, the T/C (dose: 50.0 mg/kg/injection, schedule: Q01DX009 (ip), vehicle: Klucel (hydroxypropylcellulose) (HPC)) was 100 % of control; the T/C (dose: 100.0 mg/kg/injection, schedule: Q01DX009 (ip), vehicle: Klucel (hydroxypropylcellulose) (HPC)) is 89 % of control; the T/C (dose: 200.0 mg/kg/injection, schedule: Q01DX009 (ip), vehicle: Klucel (hydroxypropylcellulose) (HPC)) was 91 % of control.

Turning to `O=C(Nc1ncnc2nc(-c3ccccc3)[nH]c12)c1ccccc1`, the T/C is 107 % of control under setting [7], 95 % of control under setting [8] and 95 % of control under setting [9].

With `COc1ccc(CCNC(=O)Nc2ccc(C(C)(C)C)cc2)cc1OC`, the T/C is 101 % of control under setting [10]; 97 % of control under setting [11]; 101 % of control (dose: 200.0 mg/kg/injection, schedule: Q01DX005 (ip), vehicle: saline with Tween-80).

In the case of `O=C(O)c1cscn1`, the T/C runs as follows: under setting [3], 100 % of control; under setting [4], 97 % of control; under setting [5], 113 % of control.

As for `Nc1nc(=S)c2ncn(C3OC(COC(=O)c4ccccc4)C(OC(=O)c4ccccc4)C3OC(=O)c3ccccc3)c2[nH]1` (stereo unspecified), the T/C (dose: 4.4 mg/kg/injection, schedule: Q01DX009 (ip), vehicle: saline with Tween-80) was 109 % of control; the T/C (dose: 6.6 mg/kg/injection, schedule: Q01DX009 (ip), vehicle: saline with Tween-80) was 113 % of control; the T/C (dose: 10.0 mg/kg/injection, schedule: Q01DX009 (ip), vehicle: saline with Tween-80) was 122 % of control; the T/C (dose: 44.0 mg/kg/injection, schedule: Q04DX003 (ip), vehicle: saline with Tween-80) was 108 % of control; the T/C (dose: 50.0 mg/kg/injection, schedule: Q01DX009 (ip), vehicle: saline with Tween-80) was 170 % of control; the T/C (dose: 66.0 mg/kg/injection, schedule: Q04DX003 (ip), vehicle: saline with Tween-80) is 116 % of control. Also, under “dose: 100.0 mg/kg/injection, schedule: Q01DX009 (ip), vehicle: saline with Tween-80”, the T/C is 90 % of control.

As to `O=[N+]([O-])c1ccc(SSc2ccc([N+](=O)[O-])s2)s1`, under setting [15], the T/C is 106 % of control.
